Results: ChEMBL document CHEMBL5543147, “Discovery and Characterization of a Novel Cereblon-Recruiting PRC1 Bridged PROTAC Degrader” (J Med Chem, 2024)
Calls of active or inactive are those of the source. The rule behind the calls is not given here.

What was measured:
Assay type in all cases: cell-based
[1] = target: Protein cereblon/Polycomb complex protein BMI-1 (Homo sapiens, UniProt Q96SW2+P35226); assay: PROTAC activity at CRBN/BIM1 in human PC-3M cells assessed as degradation of BMI1 protein expression at 5 uM incubated for 24 hrs by Western blotting analysis
[2] = target: Protein cereblon/Polycomb protein EED (Homo sapiens, UniProt O75530+Q96SW2); assay: PROTAC activity at CRBN/EED in human K562 cells assessed as degradation of EED protein expression at 10 uM measured after 12 hrs by Western blotting analysis relative to control
[3] = target: Protein cereblon/Polycomb protein SUZ12 (Homo sapiens) (UniProt Q15022+Q96SW2); assay: PROTAC activity at CRBN/SUZ12 in human PC-3M cells assessed as degradation of SUZ12 protein expression at 0.2 to 5 uM incubated for 24 hrs by Western blotting analysis; conditions: dose 0.2-5 µM
Protein cereblon/Polycomb protein SUZ12 (Homo sapiens), sequence (Q15022 whole entry, looked up): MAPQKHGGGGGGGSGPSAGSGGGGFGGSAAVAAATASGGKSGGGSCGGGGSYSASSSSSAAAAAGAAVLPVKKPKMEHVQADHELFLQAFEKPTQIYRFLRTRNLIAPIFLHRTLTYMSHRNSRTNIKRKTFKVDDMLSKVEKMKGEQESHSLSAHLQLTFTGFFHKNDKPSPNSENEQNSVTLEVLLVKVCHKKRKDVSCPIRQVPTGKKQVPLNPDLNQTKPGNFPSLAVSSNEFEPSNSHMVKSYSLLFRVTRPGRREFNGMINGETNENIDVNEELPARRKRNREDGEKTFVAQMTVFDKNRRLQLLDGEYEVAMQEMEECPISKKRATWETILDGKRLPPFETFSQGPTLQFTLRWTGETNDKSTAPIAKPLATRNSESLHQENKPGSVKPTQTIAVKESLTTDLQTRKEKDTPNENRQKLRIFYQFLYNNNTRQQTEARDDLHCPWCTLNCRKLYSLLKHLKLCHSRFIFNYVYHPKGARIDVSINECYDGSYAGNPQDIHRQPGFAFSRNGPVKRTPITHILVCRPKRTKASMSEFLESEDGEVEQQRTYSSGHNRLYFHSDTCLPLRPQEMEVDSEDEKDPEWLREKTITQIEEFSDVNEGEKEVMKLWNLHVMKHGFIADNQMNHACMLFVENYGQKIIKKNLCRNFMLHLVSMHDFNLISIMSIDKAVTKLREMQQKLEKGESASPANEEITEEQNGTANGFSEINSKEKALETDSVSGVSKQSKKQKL
Protein cereblon/Polycomb protein SUZ12 (Homo sapiens), sequence (Q96SW2 whole entry, looked up): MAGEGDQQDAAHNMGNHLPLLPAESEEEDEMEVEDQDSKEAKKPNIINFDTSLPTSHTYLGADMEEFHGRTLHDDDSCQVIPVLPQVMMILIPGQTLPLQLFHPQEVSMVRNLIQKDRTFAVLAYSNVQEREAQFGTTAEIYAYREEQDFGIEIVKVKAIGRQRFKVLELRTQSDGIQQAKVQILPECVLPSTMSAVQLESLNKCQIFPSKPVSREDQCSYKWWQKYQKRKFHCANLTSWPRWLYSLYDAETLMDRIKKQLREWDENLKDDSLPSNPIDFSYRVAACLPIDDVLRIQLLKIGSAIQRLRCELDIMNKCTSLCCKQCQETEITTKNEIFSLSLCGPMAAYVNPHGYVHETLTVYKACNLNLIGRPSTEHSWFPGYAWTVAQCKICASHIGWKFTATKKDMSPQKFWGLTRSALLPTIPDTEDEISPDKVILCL

Protein cereblon/Polycomb complex protein BMI-1, sequence (P35226 whole entry, looked up): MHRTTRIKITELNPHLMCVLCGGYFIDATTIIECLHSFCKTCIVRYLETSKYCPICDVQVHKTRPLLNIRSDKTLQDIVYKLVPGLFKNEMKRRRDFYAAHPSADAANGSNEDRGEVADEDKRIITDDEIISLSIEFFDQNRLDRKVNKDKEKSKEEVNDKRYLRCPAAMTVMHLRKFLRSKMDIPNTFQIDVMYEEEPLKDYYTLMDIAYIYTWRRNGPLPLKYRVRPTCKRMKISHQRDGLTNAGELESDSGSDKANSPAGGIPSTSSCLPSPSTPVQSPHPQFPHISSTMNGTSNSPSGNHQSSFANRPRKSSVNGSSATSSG
Protein cereblon/Polycomb complex protein BMI-1, sequence (Q96SW2 whole entry, looked up): as the sequence (Q96SW2 whole entry, looked up) above
Protein cereblon/Polycomb protein EED, sequence (O75530 2-441 limits assumed): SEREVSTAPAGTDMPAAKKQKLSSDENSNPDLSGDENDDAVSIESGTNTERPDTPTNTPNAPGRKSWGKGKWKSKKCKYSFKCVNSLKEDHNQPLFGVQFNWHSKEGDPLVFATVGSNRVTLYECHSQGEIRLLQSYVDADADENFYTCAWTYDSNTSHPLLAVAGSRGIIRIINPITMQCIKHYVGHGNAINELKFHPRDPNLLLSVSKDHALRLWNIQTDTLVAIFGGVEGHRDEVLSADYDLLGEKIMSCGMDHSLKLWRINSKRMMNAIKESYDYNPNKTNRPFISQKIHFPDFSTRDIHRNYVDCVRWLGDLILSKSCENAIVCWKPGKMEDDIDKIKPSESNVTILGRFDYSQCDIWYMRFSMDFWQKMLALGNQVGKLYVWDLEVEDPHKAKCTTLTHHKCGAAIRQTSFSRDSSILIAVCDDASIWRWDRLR
Protein cereblon/Polycomb protein EED, sequence (Q96SW2 whole entry partner): as the sequence (Q96SW2 whole entry, looked up) above

Activity [1]: Active
Activity [2]: 50%
Activity [3]: inactive
SMILES: O=C(CNc1cccc2c1C(=O)N(C1CCC(=O)NC1=O)C2=O)NCCCCN1CCN(c2ccc(-c3cnc(NCc4ccco4)n4cnnc34)cc2)CC1 (stereo not drawn)
